Source: patent publication US11596664B2, “Plant extracts made of Sideritis and use thereof to boost cognitive performance” (Finzelberg GmbH & Co. KG, priority 2010, dated 2023)

Test system: serotonin absorption (serotonergic re-uptake)
Assay: Serotonin absorption inhibition, test system according to EP 1 634 602
Type: biochemical
Conditions: reference substance at 10 μm; defines 100%
Description: Serotonergic neurotransmission being influenced is described for plants of the genus Sideritis in the patent application EP 1 634 602. […] The experimental set-up described in paragraphs [0046] to [0054] for measuring serotonergic re-uptake rates was used for initial screening of suitable species for the tests.
50 g of the herbal drug is mixed twice with 15 times the quantity of boiling water and extracted with agitation. Both maceration extracts are allowed to stand at room temperature to cool down and combined. The two combined macerations are filtered off with a fluted filter and concentrated to a soft extract using a rotary evaporator. The extractive yields determined for the different species are shown below. In order to test for the serotonin absorption inhibition, the extracts were all weighed in at the same native content and assayed with a measuring concentration of 50 μg/ml in the test system according to EP 1 634 602.
50 g of the herb Sideritis was mixed twice at 45° C. with 15 times the quantity of a mixture of water and ethanol and extracted with agitation. Both maceration extracts were allowed to stand at room temperature to cool down and combined. The two combined macerations were filtered off with a fluted filter and concentrated to a soft extract using a rotary evaporator. The extractive yields determined for the different species are shown below. […]

SMILES: COCCCC/C(=N\OCCN)c1ccc(C(F)(F)F)cc1 [fluvoxamine]
- Serotonin absorption inhibition, positive control: 100%
